The results in this text go back to patent US10934286B2, “Heterocyclic sulfones as ROR gamma modulators” (BRISTOL-MYERS SQUIBB COMPANY, priority 2016, dated 2021).

SMILES strings stand for the structures. Structures can show the parent of a compound that is named as a salt.

In general, IC50 refers to the concentration that inhibits the measured activity by half.

The experiment addresses T1, RORγ receptor (Homo sapiens, UniProt P51449).
T1 construct: Jurkat pEx/Gal/hRORγ CLBD/HYG pG51uc/blast; expressed in transfected cells
T1 sequence (P51449 269-508 limits assumed): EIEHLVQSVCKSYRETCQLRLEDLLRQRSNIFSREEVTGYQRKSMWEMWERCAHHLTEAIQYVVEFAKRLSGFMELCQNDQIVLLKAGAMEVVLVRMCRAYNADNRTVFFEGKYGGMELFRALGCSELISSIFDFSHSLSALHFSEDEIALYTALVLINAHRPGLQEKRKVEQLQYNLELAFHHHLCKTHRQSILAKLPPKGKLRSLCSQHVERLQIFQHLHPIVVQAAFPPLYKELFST
Put plainly: General RORγ Gal4 reporter assay (inverse agonist activity, inhibition of luminescence). It is filed as cell-based. To be noted: Gal4-luciferase reporter in Jurkat cells stably over-expressing hRORγ LBD; overnight incubation; 40 μM to 0.67 nM. How it is done: General RORγ Gal4 Reporter Assay Inverse agonist activity of potential ligands to RORγ was measured by inhibition of luminescence in a Gal4-luciferase reporter assay in Jurkat cells.
The following day, cells were lysed with 10 μL of Steady-Glo Luciferase Assay System (Promega Cat. No. EZ550), and analyzed immediately. IC50 values were determined.

The molecule `O=C(O)C12CCC(C(=O)N3CCC4(S(=O)(=O)c5ccccc5)c5ccc(C(F)(C(F)(F)F)C(F)(F)F)nc5CCC34)(CC1)CC2` (stereo not shown) [Example 16] registered an IC50 of 0.006 µM.

In turn, `O=C([C@@H]1C[C@@H](F)C(=O)N1CCO)N1CCC2(S(=O)(=O)c3ccc(F)cc3)c3ncc(C(F)(C(F)(F)F)C(F)(F)F)cc3CCC12` (single isomer, unassigned) [Example 36] had an IC50 of 0.11 µM.

Regarding `CC(C)(O)CN1C(=O)[C@H](F)C[C@@H]1C(=O)N1CCC2(S(=O)(=O)c3cccc(F)c3)c3ccc(C(F)(C(F)(F)F)C(F)(F)F)nc3CCC12` (stereo partly shown) [Example 46], the IC50 came to 0.41 µM.

Molecule `CC(C)(O)CN1C(=O)[C@@H]2C[C@@H]2[C@H]1C(=O)N1CCC2(S(=O)(=O)c3cccc(F)c3)c3cnc(C(F)(C(F)(F)F)C(F)(F)F)cc3CCC12` (stereo partly shown) [Example 52] came in with an IC50 of 1.81 µM.

On to `CC(C)(O)C(=O)N1CCC2(S(=O)(=O)c3ccccc3)c3ccc(C(F)(C(F)(F)F)C(F)(F)F)nc3CCC12` (stereo not shown) [Example 17], for which the IC50 came to 0.045 µM.

Take `O=C(C1CCS(=O)(=O)CC1)N1CCC2(S(=O)(=O)c3ccc(F)cc3)c3ncc(C(F)(C(F)(F)F)C(F)(F)F)cc3CCC12` (stereo not shown) [Example 8]: the IC50 is 0.091 µM.

As to `O=C(O)[C@H]1CC[C@H](C(=O)N2CCC3(S(=O)(=O)c4cccc(F)c4)c4cnc(C(F)(C(F)(F)F)C(F)(F)F)cc4CCC23)CC1` (stereo partly shown) [Example 26], the IC50 came out at 0.013 µM.

`O=C(N1CCC2(S(=O)(=O)c3ccccc3)c3ccc(OCc4c(Cl)cccc4Cl)nc3CCC12)C(F)(F)F` (single isomer, unassigned) [Example 62] yielded an IC50 of 2.44 µM.

On to `CC(C)(O)CN1C(=O)[C@H](F)C[C@H]1C(=O)N1CCC2(S(=O)(=O)c3ccc(F)cc3)c3cnc(C(F)(C(F)(F)F)C(F)(F)F)cc3CCC12` (stereo partly shown) [Example 47], for which the IC50 turned out to be 0.029 µM.

In the case of `[2H]C([2H])([2H])N1C(=O)[C@H](F)C[C@H]1C(=O)N1CCC2(S(=O)(=O)c3ccccc3)c3ccc(C(F)(C(F)(F)F)C(F)(F)F)nc3CCC12` (stereo partly shown) [Example 66], the IC50 came out at 0.031 µM.

The molecule `C[C@H]1C[C@H](C(=O)O)CC[C@H]1C(=O)N1CCC2(S(=O)(=O)c3ccccc3)c3ccc(C(F)(C(F)(F)F)C(F)(F)F)nc3CCC12` (stereo partly shown) [Example 29] gave an IC50 of 0.013 µM.

In turn, `O=C1N[C@H](C(=O)N2CCC3(S(=O)(=O)c4cccc(F)c4)c4ccc(C(F)(C(F)(F)F)C(F)(F)F)nc4CCC23)[C@H]2C[C@@H]12` (single isomer, unassigned) [Example 34, trifluoroacetate] gave an IC50 of 0.062 µM.

The molecule `O=C(O)[C@H]1CC[C@H](C(=O)N2CCC3(S(=O)(=O)c4cccc(F)c4)c4ccc(C(F)(C(F)(F)F)C(F)(F)F)nc4CCC23)CC1` (stereo partly shown) [Example 24] had an IC50 of 0.015 µM.

For the molecule `C[C@H]1C[C@H](C(=O)O)CC[C@H]1C(=O)N1CCC2(S(=O)(=O)c3cccc(F)c3)c3ccc(C(F)(C(F)(F)F)C(F)(F)F)nc3CCC12` (stereo partly shown) [Example 25], the IC50 worked out at 0.012 µM.

The molecule `[2H]C([2H])([2H])N1C(=O)[C@H](F)C[C@H]1C(=O)N1CCC2(S(=O)(=O)c3cccc(F)c3)c3ccc(C(F)(C(F)(F)F)C(F)(F)F)nc3CCC12` (stereo partly shown) [Example 63] yielded an IC50 of 0.013 µM.

Consider `CC(C)(CO)CN1C(=O)[C@H](F)C[C@H]1C(=O)N1CCC2(S(=O)(=O)c3cccc(F)c3)c3ccc(C(F)(C(F)(F)F)C(F)(F)F)nc3CCC12` (stereo partly shown) [Example 37], for which the IC50 was found to be 0.009 µM.

`C[C@H]1C[C@H](C(=O)O)CC[C@H]1C(=O)N1CCC2(S(=O)(=O)c3ccc(F)cc3)c3ccc(C(F)(C(F)(F)F)C(F)(F)F)nc3CCC12` (stereo partly shown) [Example 32]: the IC50 was 0.005 µM.

On to `O=C(O)[C@H]1CC[C@H](C(=O)N2CCC3(S(=O)(=O)c4ccc(F)cc4)c4ccc(C(F)(C(F)(F)F)C(F)(F)F)nc4CCC23)CC1` (stereo partly shown) [Example 33], for which the IC50 amounted to 0.008 µM.

In turn, `C[C@H]1C[C@H](C(=O)O)CC[C@H]1C(=O)N1CCC2(S(=O)(=O)c3ccc(F)cc3)c3ncc(C(F)(C(F)(F)F)C(F)(F)F)cc3CCC12` (single isomer, unassigned) [Example 23, trifluoroacetate] came in with an IC50 of 0.318 µM.

`NC(=O)[C@H]1CC[C@H](C(=O)N2CCC3(S(=O)(=O)c4ccc(F)cc4)c4ncc(C(F)(C(F)(F)F)C(F)(F)F)cc4CCC23)CC1` (stereo partly shown) [Example 5] showed an IC50 of 0.078 µM.

`CC(C)(O)CN1C(=O)CCN1C(=O)N1CCC2(S(=O)(=O)c3cccc(F)c3)c3cnc(C(F)(C(F)(F)F)C(F)(F)F)cc3CCC12` (stereo not shown) [Example 57] returned an IC50 of 0.021 µM.

For the molecule `CC(C)(O)CN1C(=O)CCN1C(=O)N1CCC2(S(=O)(=O)c3cccc(F)c3)c3ccc(C(F)(C(F)(F)F)C(F)(F)F)nc3CCC12` (stereo not shown) [Example 56], the IC50 was determined as 0.028 µM.

On to `N#CCCN1C(=O)CC[C@H]1C(=O)N1CCC2(S(=O)(=O)c3ccccc3)c3ccc(C(F)(C(F)(F)F)C(F)(F)F)nc3CCC12` (stereo partly shown) [Example 19], for which the IC50 was 0.013 µM.

`N#CCCN1C(=O)CC[C@H]1C(=O)N1CCC2(S(=O)(=O)c3cccc(F)c3)c3cnc(C(F)(C(F)(F)F)C(F)(F)F)cc3CCC12` (stereo partly shown) [Example 14] gave an IC50 of 0.004 µM.

On to `[2H]C([2H])([2H])N1C(=O)[C@H](F)C[C@H]1C(=O)N1CCC2(S(=O)(=O)c3ccc(F)cc3)c3ccc(C(F)(C(F)(F)F)C(F)(F)F)nc3CCC12` (stereo partly shown) [Example 64], for which the IC50 amounted to 0.024 µM.

Molecule `CC(C)(O)CN1C(=O)[C@H](F)C[C@H]1C(=O)N1CCC2(S(=O)(=O)c3cccc(F)c3)c3cnc(C(F)(C(F)(F)F)C(F)(F)F)cc3CCC12` (stereo partly shown) [Example 50] showed an IC50 of 0.014 µM.

Molecule `O=C(O)[C@H]1CC[C@H](C(=O)N2CCC3(S(=O)(=O)c4ccc(F)cc4)c4ccc(OCc5c(Cl)cccc5Cl)nc4CCC23)CC1` (stereo partly shown) [Example 40] gave an IC50 of 0.012 µM.

Molecule `CC(C)(O)CN1C(=O)[C@H](F)C[C@H]1C(=O)N1CCC2(S(=O)(=O)c3ccc(F)cc3)c3ccc(C(F)(C(F)(F)F)C(F)(F)F)nc3CCC12` (single isomer, unassigned) [Example 43] yielded an IC50 of 0.031 µM.

The molecule `[2H]C([2H])([2H])N1C(=O)[C@H](F)C[C@H]1C(=O)N1CCC2(S(=O)(=O)c3cccc(F)c3)c3cnc(C(F)(C(F)(F)F)C(F)(F)F)cc3CCC12` (stereo partly shown) [Example 65] came in with a half-maximal inhibitory concentration (IC50) of 0.091 µM.

Turning to `CC(C)(O)CN1C(=O)[C@@H]2C[C@@H]2[C@H]1C(=O)N1CCC2(S(=O)(=O)c3cccc(F)c3)c3cnc(C(F)(C(F)(F)F)C(F)(F)F)cc3CCC12` (single isomer, unassigned) [Example 51], the IC50 was determined as 0.022 µM.

The molecule `N#CCCN1C(=O)CC[C@H]1C(=O)N1CCC2(S(=O)(=O)c3ccc(F)cc3)c3ccc(C(F)(C(F)(F)F)C(F)(F)F)nc3CCC12` (single isomer, unassigned) [Example 42] returned an IC50 of 0.043 µM.

For the molecule `CC(C)(O)CN1C(=O)CCN1C(=O)N1CCC2(S(=O)(=O)c3ccccc3)c3ccc(C(F)(C(F)(F)F)C(F)(F)F)nc3CCC12` (stereo not shown) [Example 58], the IC50 is 0.012 µM.

In turn, `O=C(O)[C@H]1CC[C@H](C(=O)N2CCC3(S(=O)(=O)c4ccc(F)cc4)c4ncc(C(F)(C(F)(F)F)C(F)(F)F)cc4CCC23)CC1` (stereo partly shown) [Example 4] registered an IC50 of 0.161 µM.

Take `CC(C)(O)CN1C(=O)[C@@H]2C[C@@H]2[C@H]1C(=O)N1CCC2(S(=O)(=O)c3cccc(F)c3)c3ccc(C(F)(C(F)(F)F)C(F)(F)F)nc3CCC12` (stereo partly shown) [Example 49]: the IC50 amounted to 0.018 µM.
